Data reported in PubChem BioAssay (NCI).
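Tested at 5 concentrations; 48 h exposure; 96-well plates; endpoints linearly interpolated, else capped at highest concentration. The concentration for 50% growth inhibition is given as GI50. TGI denotes the concentration required for complete inhibition of growth.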

Tests used:
Assay in all cases: inhibition of tumour cell growth, NCI panel, 48 h
HCC-2998 colon = test system: HCC-2998 colon
OVCAR-5 ovarian = test system: OVCAR-5 ovarian
NCI-H460 lung = test system: NCI-H460 lung
NCI/ADR-RES ovarian = test system: NCI/ADR-RES ovarian
MDA-MB-435 = test system: MDA-MB-435
A549 NSCLC = test system: A549 NSCLC
HS 578T breast = test system: HS 578T breast
NCI-H522 lung = test system: NCI-H522 lung
LOX IMVI melanoma = test system: LOX IMVI melanoma
SNB-19 CNS = test system: SNB-19 CNS
K-562 leukemia = test system: K-562 leukemia
OVCAR-4 ovarian = test system: OVCAR-4 ovarian
U251 CNS = test system: U251 CNS
CAKI-1 renal = test system: CAKI-1 renal
T-47D breast = test system: T-47D breast
SN12C renal = test system: SN12C renal
HT29 colon = test system: HT29 colon
ACHN renal = test system: ACHN renal
SR leukemia = test system: SR leukemia
TK-10 renal = test system: TK-10 renal
OVCAR-3 ovarian = test system: OVCAR-3 ovarian
HCT-15 colon = test system: HCT-15 colon
UACC-62 melanoma = test system: UACC-62 melanoma
SW-620 colon = test system: SW-620 colon
SF-539 CNS = test system: SF-539 CNS
MALME-3M melanoma = test system: MALME-3M melanoma
NCI-H226 lung = test system: NCI-H226 lung
M14 melanoma = test system: M14 melanoma
KM12 colon = test system: KM12 colon
DU-145 prostate = test system: DU-145 prostate
MOLT-4 leukemia = test system: MOLT-4 leukemia
SK-MEL-28 melanoma = test system: SK-MEL-28 melanoma
A498 renal = test system: A498 renal
SF-268 CNS = test system: SF-268 CNS
HL-60(TB) leukemia = test system: HL-60(TB) leukemia
RXF 393 renal = test system: RXF 393 renal
EKVX NSCLC = test system: EKVX NSCLC
COLO 205 colon = test system: COLO 205 colon
HOP-62 NSCLC = test system: HOP-62 NSCLC
MDA-MB-231 breast = test system: MDA-MB-231 breast
NCI-H23 lung = test system: NCI-H23 lung
786-0 renal = test system: 786-0 renal
IGROV1 ovarian = test system: IGROV1 ovarian
UO-31 renal = test system: UO-31 renal
SK-MEL-5 melanoma = test system: SK-MEL-5 melanoma
OVCAR-8 ovarian = test system: OVCAR-8 ovarian
MCF7 breast = test system: MCF7 breast
SF-295 CNS = test system: SF-295 CNS
SK-OV-3 ovarian = test system: SK-OV-3 ovarian
UACC-257 melanoma = test system: UACC-257 melanoma
SNB-75 CNS = test system: SNB-75 CNS
SK-MEL-2 melanoma = test system: SK-MEL-2 melanoma
BT-549 breast = test system: BT-549 breast
RPMI-8226 leukemia = test system: RPMI-8226 leukemia
CCRF-CEM leukemia = test system: CCRF-CEM leukemia
HCT-116 colon = test system: HCT-116 colon

Cc1ccc(C2=Nc3c(N)ncnc3NC(c3ccc4c(c3)OCO4)C2)cc1 (configuration not stated)
GI50 (HCC-2998 colon): 6.3 µM | TGI (HCC-2998 colon): 67.1 µM | GI50 (OVCAR-5 ovarian): 32.1 µM | TGI (OVCAR-5 ovarian): > 100 µM | GI50 (NCI-H460 lung): 3.59 µM | TGI (NCI-H460 lung): 12.8 µM | GI50 (NCI/ADR-RES ovarian): 3.52 µM | TGI (NCI/ADR-RES ovarian): 22.9 µM | GI50 (MDA-MB-435): 1150 nM | TGI (MDA-MB-435): 4.12 µM | GI50 (A549 NSCLC): 7.09 µM | TGI (A549 NSCLC): 52.9 µM | GI50 (HS 578T breast): 7.28 µM | TGI (HS 578T breast): 40 µM | GI50 (NCI-H522 lung): 3.67 µM | TGI (NCI-H522 lung): 23.2 µM | GI50 (LOX IMVI melanoma): 6.38 µM | TGI (LOX IMVI melanoma): 25 µM | GI50 (SNB-19 CNS): 38.2 µM | TGI (SNB-19 CNS): > 100 µM | GI50 (K-562 leukemia): 4.19 µM | TGI (K-562 leukemia): > 100 µM | GI50 (OVCAR-4 ovarian): 17.7 µM | TGI (OVCAR-4 ovarian): 74.9 µM | GI50 (U251 CNS): 4.55 µM | TGI (U251 CNS): 16.3 µM | GI50 (CAKI-1 renal): 1440 nM | TGI (CAKI-1 renal): 19.1 µM | GI50 (T-47D breast): 5.72 µM | TGI (T-47D breast): > 100 µM | GI50 (SN12C renal): 8.61 µM | TGI (SN12C renal): > 100 µM | GI50 (HT29 colon): 3.81 µM | TGI (HT29 colon): 33.9 µM | GI50 (ACHN renal): 7.74 µM | TGI (ACHN renal): 36.7 µM | GI50 (SR leukemia): 249 nM | TGI (SR leukemia): 3.85 µM | GI50 (TK-10 renal): 4.47 µM | TGI (TK-10 renal): 21.1 µM | GI50 (OVCAR-3 ovarian): 2750 nM | TGI (OVCAR-3 ovarian): 6.11 µM | GI50 (HCT-15 colon): 3.14 µM | TGI (HCT-15 colon): 13.7 µM | GI50 (UACC-62 melanoma): 4.09 µM | TGI (UACC-62 melanoma): > 100 µM | GI50 (SW-620 colon): 3.56 µM | TGI (SW-620 colon): 16.8 µM | GI50 (SF-539 CNS): 4.98 µM | TGI (SF-539 CNS): 21.7 µM | GI50 (MALME-3M melanoma): 3.01 µM | TGI (MALME-3M melanoma): 26.8 µM | GI50 (NCI-H226 lung): 12.6 µM | TGI (NCI-H226 lung): 47.9 µM | GI50 (M14 melanoma): > 100 µM | TGI (M14 melanoma): > 100 µM | GI50 (KM12 colon): 3.79 µM | TGI (KM12 colon): 15 µM | GI50 (DU-145 prostate): 4.52 µM | TGI (DU-145 prostate): 14.7 µM | GI50 (MOLT-4 leukemia): 2660 nM | TGI (MOLT-4 leukemia): > 100 µM | GI50 (SK-MEL-28 melanoma): 10.2 µM | TGI (SK-MEL-28 melanoma): 38 µM | GI50 (A498 renal): 6.33 µM | TGI (A498 renal): 35.2 µM | GI50 (SF-268 CNS): 4.06 µM | TGI (SF-268 CNS): 16.3 µM | GI50 (HL-60(TB) leukemia): 718 nM | TGI (HL-60(TB) leukemia): > 100 µM | GI50 (RXF 393 renal): 3.5 µM | TGI (RXF 393 renal): 23.1 µM | GI50 (EKVX NSCLC): 16.2 µM | TGI (EKVX NSCLC): > 100 µM | GI50 (COLO 205 colon): 3.47 µM | TGI (COLO 205 colon): 21.7 µM | GI50 (HOP-62 NSCLC): > 100 µM | TGI (HOP-62 NSCLC): > 100 µM | GI50 (MDA-MB-231 breast): 4.37 µM | TGI (MDA-MB-231 breast): 19.5 µM | GI50 (NCI-H23 lung): 10.2 µM | TGI (NCI-H23 lung): 63.3 µM | GI50 (786-0 renal): > 100 µM | TGI (786-0 renal): > 100 µM | GI50 (IGROV1 ovarian): 3.34 µM | TGI (IGROV1 ovarian): 26.2 µM | GI50 (UO-31 renal): 10.8 µM | TGI (UO-31 renal): 26.5 µM | GI50 (SK-MEL-5 melanoma): 3.85 µM | TGI (SK-MEL-5 melanoma): 37.5 µM | GI50 (OVCAR-8 ovarian): 13.5 µM | TGI (OVCAR-8 ovarian): > 100 µM | GI50 (MCF7 breast): 3.42 µM | TGI (MCF7 breast): > 100 µM | GI50 (SF-295 CNS): 3.45 µM | TGI (SF-295 CNS): 21.7 µM | GI50 (SK-OV-3 ovarian): 15.8 µM | TGI (SK-OV-3 ovarian): 52.3 µM | GI50 (UACC-257 melanoma): 40 µM | TGI (UACC-257 melanoma): > 100 µM | GI50 (SNB-75 CNS): 4.55 µM | TGI (SNB-75 CNS): 37.2 µM

CC(C)CC(Nc1c(O)ccc2ccccc12)C(=O)O (configuration not stated)
TGI (HCC-2998 colon): > 100 µM | TGI (OVCAR-5 ovarian): > 100 µM | TGI (NCI-H460 lung): > 100 µM | TGI (SK-MEL-2 melanoma): 42.5 µM | TGI (NCI/ADR-RES ovarian): > 100 µM | TGI (BT-549 breast): 83.6 µM | TGI (MDA-MB-435): 45.6 µM | TGI (A549 NSCLC): > 100 µM | TGI (HS 578T breast): 95.9 µM | TGI (NCI-H522 lung): > 100 µM | TGI (LOX IMVI melanoma): > 100 µM | TGI (SNB-19 CNS): > 100 µM | TGI (K-562 leukemia): > 100 µM | TGI (OVCAR-4 ovarian): > 100 µM | TGI (U251 CNS): > 100 µM | TGI (CAKI-1 renal): 47.4 µM | TGI (T-47D breast): > 100 µM | TGI (SN12C renal): > 100 µM | TGI (HT29 colon): > 100 µM | TGI (ACHN renal): 76 µM | TGI (SR leukemia): > 100 µM | TGI (TK-10 renal): > 100 µM | TGI (RPMI-8226 leukemia): > 100 µM | TGI (OVCAR-3 ovarian): 62.1 µM | TGI (HCT-15 colon): > 100 µM | TGI (UACC-62 melanoma): 72.3 µM | TGI (SW-620 colon): > 100 µM | TGI (SF-539 CNS): 47.6 µM | TGI (MALME-3M melanoma): 39.2 µM | TGI (NCI-H226 lung): 62.1 µM | TGI (M14 melanoma): > 100 µM | TGI (KM12 colon): > 100 µM | TGI (DU-145 prostate): > 100 µM | TGI (MOLT-4 leukemia): > 100 µM | TGI (SK-MEL-28 melanoma): > 100 µM | TGI (A498 renal): 67.3 µM | TGI (SF-268 CNS): 83.3 µM | TGI (HL-60(TB) leukemia): > 100 µM | TGI (CCRF-CEM leukemia): > 100 µM | TGI (HCT-116 colon): > 100 µM | TGI (RXF 393 renal): 35.8 µM | TGI (EKVX NSCLC): 58.3 µM | TGI (COLO 205 colon): > 100 µM | TGI (HOP-62 NSCLC): > 100 µM | TGI (MDA-MB-231 breast): > 100 µM | TGI (NCI-H23 lung): > 100 µM | TGI (786-0 renal): > 100 µM | TGI (IGROV1 ovarian): > 100 µM | TGI (UO-31 renal): > 100 µM | TGI (SK-MEL-5 melanoma): 38.7 µM | TGI (MCF7 breast): > 100 µM | TGI (SF-295 CNS): 66.6 µM | TGI (SK-OV-3 ovarian): 66.3 µM | TGI (UACC-257 melanoma): 50.3 µM | TGI (SNB-75 CNS): > 100 µM
